# Laboratory results reported in ChEMBL document CHEMBL3351452, “Chemical synthesis, cytotoxicity, selectivity and bioavailability of 5α-androstane-3α,17β-diol derivatives” (Bioorg Med Chem, 2014).
# pIC50: −log10 of the molar value.
# Legend:
# [1] = Plasma concentration in Sprague-Dawley rat at 2.3 mg/kg, sc measured at 3 hrs by LC/MS/MS analysis; assay type: ADME, organism-based; parameters: dose 2.3 mg/kg, route subcutaneous
# [2] = test system: T47D; assay: Antiproliferative activity against human T47D cells assessed as reduction in cell growth after 24 hrs by MTS assay; assay type: functional, cell-based
# [3] = test system: MCF7; assay: Antiproliferative activity against human MCF7 cells assessed as reduction in cell growth after 24 hrs by MTS assay; assay type: functional, cell-based; details: MCF7, 24 h
# [4] = test system: LNCaP; assay: Antiproliferative activity against human LNCAP cells assessed as reduction in cell growth after 24 hrs by MTS assay; assay type: functional, cell-based
# [5] = test system: HL-60; assay: Antiproliferative activity against human HL-60 cells assessed as reduction in cell growth after 24 hrs by MTS assay; assay type: functional, cell-based; details: HL-60, 24 h
# [6] = Plasma concentration in Sprague-Dawley rat at 2.3 mg/kg, sc measured at 12 hrs by LC/MS/MS analysis; assay type: ADME, organism-based; parameters: dose 2.3 mg/kg, route subcutaneous
# [7] = Cytotoxicity against mouse WEHI13 cells assessed as cell proliferation after 48 hrs by MTT assay; assay type: cell-based; details: WEHI13, 48 h
compound,measurement,setting,value
C[C@]12C[C@H](N3CCN(C(=O)[C@@H]4CCCN4C(=O)c4cc5ccccc5[n+]([O-])c4)CC3)[C@@H](O)C[C@@H]1CC[C@@H]1[C@@H]2CC[C@]2(C)[C@@H](O)CC[C@@H]12,concentration at 3 h,[1],158 ng/mL
same,pIC50,[2],6.00
same,pIC50,[3],6.05
same,pIC50,[4],< 5.00
same,pIC50,[5],6.10
same,concentration at 12 h,[6],2.9 ng/mL
C[C@]12C[C@H](N3CCN(C(=O)[C@@H]4CCCN4C(=O)c4cnc5ccccc5c4)CC3)[C@@H](O)C[C@@H]1CC[C@@H]1[C@@H]2CC[C@]2(C)[C@@H](O)CC[C@@H]12,concentration at 3 h,[1],163 ng/mL
same,pIC50,[2],5.15
same,pIC50,[3],5.92
same,pIC50,[4],< 5.00
same,pIC50,[5],5.40
same,concentration at 12 h,[6],2.3 ng/mL
C[C@]12C[C@H](N3CCN(C(=O)[C@@H]4CCCN4C(=O)c4cccc5ccccc45)CC3)[C@@H](O)C[C@@H]1CC[C@@H]1[C@@H]2CC[C@]2(C)C(=O)CC[C@@H]12,pIC50,[2],5.15
same,pIC50,[3],5.10
same,pIC50,[4],5.00
same,pIC50,[5],5.07
C#C[C@]1(O)CC[C@H]2[C@@H]3CC[C@H]4C[C@H](O)[C@@H](N5CCN(C(=O)[C@@H]6CCCN6C(=O)c6ccc7ccccc7c6)CC5)C[C@]4(C)[C@H]3CC[C@@]21C,concentration at 3 h,[1],185 ng/mL
same,pIC50,[2],6.52
same,pIC50,[3],6.52
same,pIC50,[4],5.35
same,pIC50,[7],5.77
same,pIC50,[5],5.72
same,concentration at 12 h,[6],50.2 ng/mL
C[C@]12C[C@H](N3CCN(C(=O)[C@@H]4CCCN4C(=O)c4ccc5ncccc5c4)CC3)[C@@H](O)C[C@@H]1CC[C@@H]1[C@@H]2CC[C@]2(C)[C@@H](O)CC[C@@H]12,concentration at 3 h,[1],194 ng/mL
same,pIC50,[2],5.15
same,pIC50,[3],5.31
same,pIC50,[4],< 5.00
same,pIC50,[5],5.33
same,concentration at 12 h,[6],1.3 ng/mL
CO[C@H]1CC[C@H]2[C@@H]3CC[C@H]4C[C@H](O)[C@@H](N5CCN(C(=O)[C@@H]6CCCN6C(=O)c6ccc7ccccc7c6)CC5)C[C@]4(C)[C@H]3CC[C@]12C,concentration at 3 h,[1],33.3 ng/mL
same,pIC50,[2],5.30
same,pIC50,[3],5.35
same,pIC50,[4],5.15
same,pIC50,[5],5.35
same,concentration at 12 h,[6],7.6 ng/mL
C#C[C@]1(O)CC[C@H]2[C@@H]3CC[C@H]4C[C@H](O)[C@@H](N5CCN(C(=O)[C@@H]6CCCN6C(=O)c6cccc7ccccc67)CC5)C[C@]4(C)[C@H]3CC[C@@]21C,pIC50,[2],5.10
same,pIC50,[3],5.64
same,pIC50,[4],4.92
same,pIC50,[5],5.15
C[C@]12C[C@H](N3CCN(C(=O)[C@@H]4CCCN4C(=O)c4ccc5ccccc5c4)CC3)[C@@H](O)C[C@@H]1CC[C@@H]1[C@@H]2CC[C@]2(C)[C@@H](O)CC[C@@H]12,concentration at 3 h,[1],64.8 ng/mL
same,pIC50,[2],6.40
same,pIC50,[3],6.30
same,pIC50,[4],5.80
same,pIC50,[7],< 5.00
same,pIC50,[5],6.40
same,concentration at 12 h,[6],8.8 ng/mL
C[C@]12C[C@H](N3CCN(C(=O)[C@@H]4CCCN4C(=O)c4ccc5ccccc5n4)CC3)[C@@H](O)C[C@@H]1CC[C@@H]1[C@@H]2CC[C@]2(C)[C@@H](O)CC[C@@H]12,concentration at 3 h,[1],163 ng/mL
same,pIC50,[2],7.00
same,pIC50,[3],7.00
same,pIC50,[4],7.40
same,pIC50,[5],5.80
same,concentration at 12 h,[6],3.1 ng/mL
C[C@]12C[C@H](N3CCN(C(=O)[C@@H]4CCCN4C(=O)c4ccc5ccccc5n4)CC3)[C@@H](O)C[C@@H]1CC[C@@H]1[C@@H]2CC[C@]2(C)C(=O)CC[C@@H]12,concentration at 3 h,[1],188 ng/mL
same,pIC50,[2],6.15
same,pIC50,[3],6.00
same,pIC50,[4],6.10
same,pIC50,[5],6.22
same,concentration at 12 h,[6],0.3 ng/mL
C[C@]12C[C@H](N3CCN(C(=O)[C@@H]4CCCN4C(=O)c4cc5ccccc5cn4)CC3)[C@@H](O)C[C@@H]1CC[C@@H]1[C@@H]2CC[C@]2(C)[C@@H](O)CC[C@@H]12,concentration at 3 h,[1],123 ng/mL
same,pIC50,[2],6.70
same,pIC50,[3],7.00
same,pIC50,[4],7.15
same,pIC50,[7],5.52
same,pIC50,[5],5.85
same,concentration at 12 h,[6],2.7 ng/mL
COc1cccc2c1C(=O)c1c(O)c3c(c(O)c1C2=O)C[C@@](O)(C(=O)CO)C[C@@H]3O[C@H]1C[C@H](N)[C@H](O)[C@H](C)O1 [DOXORUBICIN],pIC50,[2],6.15
same,pIC50,[3],< 5.00
same,pIC50,[4],6.70
same,pIC50,[7],7.70
same,pIC50,[5],6.15
C[C@]12CC[C@@H](O)C[C@@H]1CC[C@@H]1[C@@H]2CC[C@]2(C)[C@@H](O)CC[C@@H]12 [ANDROSTANDIOL],pIC50,[7],< 5.00
C[C@]12C[C@H](N3CCN(C(=O)[C@@H]4CCCN4C(=O)c4cccc5ccccc45)CC3)[C@@H](O)C[C@@H]1CC[C@@H]1[C@@H]2CC[C@]2(C)[C@@H](O)CC[C@@H]12,pIC50,[2],5.30
same,pIC50,[3],5.32
same,pIC50,[4],6.52
same,pIC50,[5],5.43
C[C@]12C[C@H](N3CCN(C(=O)[C@@H]4CCCN4C(=O)C4CCCCC4)CC3)[C@@H](O)C[C@@H]1CC[C@@H]1[C@@H]2CC[C@]2(C)[C@@H](O)CC[C@@H]12,pIC50,[7],5.57
C[C@]12C[C@H](N3CCN(C(=O)[C@@H]4CCCN4C(=O)c4ccc5ccccc5c4)CC3)[C@@H](O)C[C@@H]1CC[C@@H]1[C@@H]2CC[C@@]2(C)[C@H]1CC[C@]2(C)O,concentration at 3 h,[1],122 ng/mL
same,pIC50,[2],5.70
same,pIC50,[3],5.92
same,pIC50,[4],< 5.00
same,pIC50,[5],5.33
same,concentration at 12 h,[6],32 ng/mL
